Laboratory results published in ChEMBL document CHEMBL3868581, “Avarol derivatives as competitive AChE inhibitors, non hepatotoxic and neuroprotective agents for Alzheimer's disease” (Eur J Med Chem, 2016).
Activity calls are given as the source filed them. The calls are words filed in the database; no cut-off is given here.

How the values were obtained:
[1] = target: Cholinesterase (Equus caballus) (UniProt P81908); assay: Inhibition of equine serum BuChE using butyrylthiocholine iodide as substrate at 50 uM incubated for 15 mins followed by substrate addition by Ellman's method
Chain of Cholinesterase (Equus caballus) (P81908 whole entry): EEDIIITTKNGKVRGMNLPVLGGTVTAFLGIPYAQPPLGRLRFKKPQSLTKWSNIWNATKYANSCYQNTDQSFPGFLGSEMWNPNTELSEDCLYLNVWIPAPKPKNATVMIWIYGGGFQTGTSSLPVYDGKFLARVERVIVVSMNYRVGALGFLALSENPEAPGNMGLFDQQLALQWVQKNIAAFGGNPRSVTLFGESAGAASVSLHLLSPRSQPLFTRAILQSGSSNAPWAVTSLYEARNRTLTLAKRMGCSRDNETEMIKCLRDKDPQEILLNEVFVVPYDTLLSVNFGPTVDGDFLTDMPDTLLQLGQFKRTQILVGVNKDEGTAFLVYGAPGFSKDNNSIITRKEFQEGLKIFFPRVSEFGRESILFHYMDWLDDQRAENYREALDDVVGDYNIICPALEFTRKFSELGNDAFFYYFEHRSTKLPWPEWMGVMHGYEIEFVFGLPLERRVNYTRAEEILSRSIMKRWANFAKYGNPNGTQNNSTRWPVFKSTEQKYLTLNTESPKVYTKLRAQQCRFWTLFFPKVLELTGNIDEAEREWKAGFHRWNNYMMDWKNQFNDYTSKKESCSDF

[2] = target: Acetylcholinesterase (Electrophorus electricus) (UniProt O42275); assay: Competitive inhibition of Electrophorus electricus AChE using acetylthiocholine iodide as substrate at 0.001 to 10 uM incubated for 15 mins followed by substrate addition by Lineweaver-Burk reciprocal plot analysis
Chain of Acetylcholinesterase (Electrophorus electricus) (O42275 24-633 limits assumed): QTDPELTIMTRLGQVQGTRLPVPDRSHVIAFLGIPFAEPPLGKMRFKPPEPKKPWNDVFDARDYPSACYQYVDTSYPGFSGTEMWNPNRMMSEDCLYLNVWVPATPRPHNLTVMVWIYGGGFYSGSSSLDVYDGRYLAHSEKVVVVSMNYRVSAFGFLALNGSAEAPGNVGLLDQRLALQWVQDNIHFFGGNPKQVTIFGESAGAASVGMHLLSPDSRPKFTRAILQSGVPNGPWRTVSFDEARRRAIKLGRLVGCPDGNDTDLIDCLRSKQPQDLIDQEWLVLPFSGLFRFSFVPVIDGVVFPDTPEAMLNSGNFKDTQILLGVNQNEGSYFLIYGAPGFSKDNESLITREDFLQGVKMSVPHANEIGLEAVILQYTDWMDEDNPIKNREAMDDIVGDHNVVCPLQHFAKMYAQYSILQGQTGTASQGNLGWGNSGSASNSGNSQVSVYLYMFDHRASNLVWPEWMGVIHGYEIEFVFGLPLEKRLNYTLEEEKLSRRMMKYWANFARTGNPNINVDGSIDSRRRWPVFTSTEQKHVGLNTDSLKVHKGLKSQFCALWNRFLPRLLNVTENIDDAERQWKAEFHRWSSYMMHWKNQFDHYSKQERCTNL

[3] = target: T1, Acetylcholinesterase (Electrophorus electricus, UniProt O42275)
T1 sequence (O42275 whole entry): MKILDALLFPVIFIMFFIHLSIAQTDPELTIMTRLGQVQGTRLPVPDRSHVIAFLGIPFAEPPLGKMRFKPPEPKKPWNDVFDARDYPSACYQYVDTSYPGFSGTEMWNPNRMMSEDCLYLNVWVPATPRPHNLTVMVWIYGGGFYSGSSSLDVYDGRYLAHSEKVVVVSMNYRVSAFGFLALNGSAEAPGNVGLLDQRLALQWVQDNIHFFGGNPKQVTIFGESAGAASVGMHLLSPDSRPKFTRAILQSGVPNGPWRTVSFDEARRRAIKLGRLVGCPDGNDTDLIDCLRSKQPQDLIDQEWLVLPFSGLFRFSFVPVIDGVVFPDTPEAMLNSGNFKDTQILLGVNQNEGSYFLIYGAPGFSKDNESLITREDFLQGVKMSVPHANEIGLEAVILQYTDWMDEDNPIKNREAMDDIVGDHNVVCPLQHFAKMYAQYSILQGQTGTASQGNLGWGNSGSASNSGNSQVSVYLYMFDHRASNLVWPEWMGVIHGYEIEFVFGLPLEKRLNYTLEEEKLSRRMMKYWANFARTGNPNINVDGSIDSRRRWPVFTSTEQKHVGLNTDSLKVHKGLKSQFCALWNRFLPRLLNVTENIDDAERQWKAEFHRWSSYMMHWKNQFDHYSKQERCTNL
Description: Inhibition of Electrophorus electricus AChE using acetylthiocholine iodide as substrate incubated for 15 mins followed by substrate addition by Ellman's method

[4] = target: Cholinesterase (Equus caballus, UniProt P81908)
Chain of Cholinesterase (P81908 whole entry): as the sequence (P81908 whole entry) above
Description: Inhibition of equine serum BuChE using butyrylthiocholine iodide as substrate incubated for 15 mins followed by substrate addition by Ellman's method

[5] = target: T1, Acetylcholinesterase; remark: listed apart in the source
Description: Inhibition of Electrophorus electricus AChE using acetylthiocholine iodide as substrate by Dixon plot analysis

[6] = Neurotoxicity in human SH-SY5Y cells assessed as decrease in cell viability at 1 uM after 24 hrs by XTT assay; assay type: toxicity, cell-based
[7] = Neurotoxicity in human SH-SY5Y cells assessed as decrease in cell viability at 25 to 50 uM after 24 hrs by XTT assay; assay type: toxicity, cell-based
[8] = system: HepG2; assay: Hepatotoxicity in human HepG2 cells assessed as decrease in cell viability at 1 to 100 uM after 24 hrs by XTT assay; assay type: toxicity, cell-based; details: hepg2, 24 h
[9] = cells; details: Homo sapiens, SH-SY5Y, 24 h
Description: Neuroprotective activity against oligomycine/rotenone-induced oxidative stress-mediated cell death in human SH-SY5Y cells assessed as increase in cell viability after 24 hrs by XTT assay

[10] = cells; details: Homo sapiens, SH-SY5Y, 24 h; remark: listed apart in the source
Description: Neuroprotective activity against okadaic acid-induced tau phosphorylation-mediated cell death in human SH-SY5Y cells assessed as increase in cell viability after 24 hrs by XTT assay

[11] = system: SH-SY5Y; assay: Neuroprotective activity against oligomycine/rotenone-induced oxidative stress-mediated cell death in human SH-SY5Y cells assessed as increase in cell viability at 10 uM after 24 hrs by microscopic analysis; assay type: functional, cell-based
[12] = system: SH-SY5Y; assay: Neuroprotective activity against okadaic acid-induced tau phosphorylation-mediated cell death in human SH-SY5Y cells assessed as increase in cell viability at 10 uM after 24 hrs by microscopic analysis; assay type: functional, cell-based
[13] = system: HepG2; assay: Hepatoprotective activity in human HepG2 cells at 1 to 25 uM after 24 hrs by XTT assay; assay type: functional, cell-based
[14] = cells; details: Rattus norvegicus, Sprague-Dawley, Cortical neurone, 3 h
Description: Neuroprotective activity against NMDA-induced excitotoxicity in Sprague-Dawley rat primary cortical neurons assessed as increase in cell viability after 3 hrs by MTT assay

[15] = system: HepG2; assay: Hepatotoxicity in human HepG2 cells assessed as decrease in cell viability at 100 uM after 24 hrs by XTT assay; assay type: toxicity, cell-based; details: hepg2, 24 h

CC1=CCC[C@H]2[C@](C)(Cc3cc(O)cc(Sc4ccccc4C(=O)O)c3O)[C@@H](C)CC[C@]12C
Imax [1]: 77.5% | inhibition [2]: Active | IC50 [3]: 15.1 µM | IC50 [4]: 15.1 µM | Ki [5]: 0.0585 nM

CC(C)=CCC/C(C)=C/Cc1cc(O)cc(Sc2ccccc2C(=O)O)c1O
Imax [1]: 17.8% | Activity [6]: Non-Toxic | Activity [7]: Non-Toxic | Activity [8]: Non-Toxic | IC50 [3]: 13.1 µM | EC50 [9]: 8.17 µM | EC50 [10]: 0.22 µM

CC1=CCC[C@H]2[C@](C)(Cc3cc(O)ccc3O)[C@@H](C)CC[C@]12C [AVAROL]
Activity [6]: Non-Toxic | Activity [7]: Non-Toxic | IC50 [3]: 286 µM

CC(C)=CCC/C(C)=C/CC/C(C)=C/CC/C(C)=C/Cc1cc(O)cc(Sc2ccccc2C(=O)O)c1O
Imax [1]: 60.5% | inhibition [2]: Active | Activity [11]: Active | Activity [12]: Active | Activity [6]: Non-Toxic | Activity [7]: Non-Toxic | Activity [8]: Non-Toxic | Activity [13]: Active | IC50 [3]: 6.77 µM | IC50 [4]: 19.7 µM | Ki [5]: 0.00059 nM | EC50 [9]: 0.52 µM | EC50 [10]: 0.15 µM

CC(C)=CCc1cc(O)cc(Sc2ccccc2C(=O)O)c1O
Imax [1]: 13.1% | inhibition [2]: Active | Activity [6]: Non-Toxic | Activity [7]: Non-Toxic | Activity [8]: Non-Toxic | IC50 [3]: 7.88 µM | Ki [5]: 0.221 nM | EC50 [9]: 4.65 µM | EC50 [10]: 0.54 µM

CC(C)=CCC/C(C)=C/CC/C(C)=C/Cc1cc(O)cc(Sc2ccccc2C(=O)O)c1O
Imax [1]: 8.4% | Activity [6]: Non-Toxic | Activity [7]: Non-Toxic | Activity [8]: Non-Toxic | IC50 [3]: 18.1 µM | EC50 [9]: 13.6 µM | EC50 [10]: 0.516 µM

COc1ccc2c3c1O[C@H]1C[C@@H](O)C=C[C@@]31CCN(C)C2 [GALANTAMINE]
Activity [6]: Non-Toxic | Activity [7]: Non-Toxic | EC50 [9]: 2.81 µM | EC50 [10]: 1.94 µM | EC50 [14]: 1.48 µM

C/C(=C\Cc1cc(O)cc(Sc2ccccc2C(=O)O)c1O)CCCC(C)CCCC(C)CCCC(C)C (configuration not stated)
Imax [1]: 94.3 to 95% | Activity [6]: Non-Toxic | Activity [7]: Non-Toxic | Activity [15]: Toxic | IC50 [3]: 13.8 µM | IC50 [4]: 12.8 µM | EC50 [9]: 1.1 µM | EC50 [10]: 1.21 µM
